Activity calls are given as the source filed them. The calls are words filed in the database; no cut-off is given here.
Test system: Candida albicans
Test: Antifungal activity against Candida albicans at 100 ug/disk by sensitive disk method
Assay type: functional, organism-based

CC[C@H](O)/C=C/C=C/C=C/C=O
Activity: Active

Reference: ChEMBL document CHEMBL1147341, “Unprecedented oxylipins from the marine green alga Acrosiphonia coalita” (J Nat Prod, 1993)
